According to patent US9242001B2, “Cationic lipids for therapeutic agent delivery formulations” (Nitto Denko Corporation, priority 2011, dated 2016):

Test system: gp46 mRNA
Assay: pHSC in vitro assay, gp46 gene knockdown by qRT-PCR
Format: cell-based, rat
Conditions: @ 50 nM

Structure (SMILES) | in vitro (pHSC) % KD
CCCCCCCCCCCC(=O)OCCN(CCOC(=O)CCCCCCCCCCC)C(=O)C[N+](C)(C)CCO.[Br-] [HEDC-12, 2-(bis(2-(dodecanoyloxy)ethyl)amino)-N-(2-hydroxyethyl)-N,N-dimethyl-2-oxoethanaminium bromide] | i. 0% @ 50 nM
CCCCC/C=C\C/C=C\CCCCCCCC(=O)OCCN(CCOC(=O)CCCCCCC/C=C\C/C=C\CCCCC)C(=O)C[N+](C)(C)CCO.[Br-] [HEDC-DLin, 2-(bis(2-((9Z,12Z)-octadeca-9,12-dienoyloxy)ethyl)amino)-N-(2-hydroxyethyl)-N,N-dimethyl-2-oxoethanaminium bromide] | i. 50% @ 50 nM
